# Reference: EP2657347A1, “Electrochemical competitive assay and use thereof” (Université Paris Diderot - Paris 7, priority 2012, dated 2013)
# How the values were obtained:
# [1] = biological target: anti-L-tyrosinamide aptamer; conditions: previously determined by fluorescence polarization; cited from earlier work
# D-Apt49 [2] = assay: Redox-mediated catalytic cyclic voltammetry titration with aptamer; format: binding
# Method: (§1) All experiments were performed in 5 mM Tris buffer (pH 7) containing 10 mM MgCl2 and 50 mM NaCl (Recognition Buffer, RBr). The L-Tym concentration is always 5 µM. For cyclic voltammetric experiments, 1 µM [Os(bpy)3]2+ with 5 µM 1-Tym in a droplet of 50 µL RBr was used. So, before each experiment, the droplet is shaking with a micropipette. This procedure is repeated until we obtain a reproducible and stable voltammogram. Mother solution of Fc-1-Tym was a […] solution in DMF. This product is conserved at 4°C and seal with parafilm. Before each experiment, this solution is diluted 10 times in stabilized DMF, such as 0.2 µL in 50 µL of RBr leads to 5 µM of Fc-1-Tym.
# (§2) Cyclic voltammetry measurements were performed with an AUTOLAB PGSTAT 12 potentiostat/galvanostat controlled by computer, and the data were acquired using GPES 4.9007 software (EcoChemie, The Netherlands). Small self-contained electrochemical cells made of 3 screen-printed electrodes on a flat substrate were used for all experiments. The electrodes were printed using a DEK model-65 screen-printer. Working electrodes were 4 mm diameter screen-printed carbon electrodes prepared using a commercial carbon ink (Electrodag PF-470 A) deposited on the top of an underlying Ag layer (Electrodag 418 SS). Counter electrode was obtained using an Ag ink (Electrodag 418 SS).
# (§3) Before experiments, the screen-printed carbon electrodes were coated with bovine serum albumin (BSA) by immersing the electrodes in a 1 mg/mL BSA solution for 10 minutes at room temperature. The BSA-modified electrodes were next cycled between 0 V and 0.8 V at v = 0.05 V/s, until of the capacitive background current in cyclic voltammetry was stablized.
# The 49-mer aptamer we have used (see here above) is a sequence similar to the one that was previously selected by Vianini et al and successfully applied to chromatographic- and fluorescence-based L-Tym assays. Since direct electrochemical oxidation of phenolic compounds generally leads to electrode passivation and thus to poorly reproducible anodic peak current in cyclic voltammetry (CV), the electrochemical detection of L-Tym was performed by redox-mediated catalytic oxidation of the phenolic function. For such a purpose, we have used the one-electron redox mediator couple [Os^III/II(bpy)3]^3+/2+ which, according to its relatively high standard potential (E^0=+0.58 V vs. Ag/AgCl), is capable to efficiently catalyze the oxidation of phenolic compounds. [drawing 51]
# The linear dependence of the peak current with both the square root of scan rate, v, and L-Tym concentration, indicates conditions of total catalysis for which the catalytic peak current response, ip, can be expressed by eq 1. ip = 0.609nFSCT^0 sqrt(DT)sqrt(fv/RT) [formula] where n is the number of electron involved in the catalytic reaction, F the Faraday constant, S the electrode area, C^0T the bulk concentration of L-Tym, and DT the diffusion coefficient of L-Tym. After aptamer addition, the binding reaction (eq 2) is rapidly set at equilibrium. [drawing 53] with Kd the dissociation constant. On the basis of a classical law of action mass and mass balance (i.e., C^0T = CT + CRT, with CT and CRT the free and receptor-bound target concentrations), and assuming a 1:1 binding stoichiometry, the free (χƒ) mole fraction of target in the bulk solution can thus be estimated by eq 3. χf = (CT)/(CT^0) = 1-(Kd + CT^0 + CR^0 -sqrt(((Kd+CT^0+CR^0))^2 -4CT^0 CR^0))/(2CT^0) [formula]
# Here, C^0R is the total concentration of the aptamer receptor added to the solution. Under the assumption of a slow interconversion of free and bound target on the time scale of CV experiments, the catalytic peak current can thus be expressed by a linear combination of the catalytic currents related to the free and bound target through eq 4. ip = 0.609nFSCT^0 sqrt(fv/RT)[χfsqrt(DT)+(1-χf)sqrt(DRT)] [formula] where DT and DRT are the diffusion coefficients of the free and receptor-bound target, respectively. […]
# D-Apt49 [3] = assay: Homogeneous electrochemical competitive binding assay in Tris buffer; conditions: 5 µM Fc-L-Tym, K^*d fixed at 1.2 µM
# Method: as §1, §2, §3
# The competitive assay can be described by the two equilibrated binding reactions 6a and 6b, in which Fc-L-Tym is L-tyrosinamide labeled by a redox-active ferrocene group. The ferrocenyl label was here incorporated on the ―OH position of the phenolic group (Scheme 1). Note that under this condition the catalytic oxidation of the phenolic residue is no more possible and only the ferrocene labeled molecule can be detected. [drawing 63] [drawing 64] with Kd = (CTCR)/CRT [formula] Kd^(*) = (CT^(*)CR)/CRT^(*) [formula] where CR is the concentration of free aptamer receptor. […] Ideally, the two binding constants should be as close as possible (Kd ≈ K^*d). The value of K^*d was determined by monitoring in CV the reversible response of 5 µM Fc-L-Tym solution as a function of increasing concentrations of D-Apt49.
# The competitive binding assay was achieved from two separate solutions containing a starting mixture of 5 µM Fc- L-Tym and 3 µM or 10 µM D-Apt49, and to which an increasing amount of L-Tym was added. […]
structure (smiles),measurement,setting,value
"NC(=O)[C@@H](N)Cc1ccc(O)cc1 [L-Tym, L-tyrosinamide]",Kd,[1],1700 to 2200 nM
same,Kd,"D-Apt49 [2]; 5 µM target, 1 µM [Os(bpy)3]2+, 5 mM Tris buffer pH 7.0, 50 mM NaCl, 10 mM MgCl2, nonlinear fit of eq 5",2900 ± 300 nM
same,DRT (diffusion coefficient of the receptor-bound target),"D-Apt49 [2]; L-Tym bound to D-Apt49, assuming one electron exchanged",1.4 × 10^-6 cm^2 s^-1
same,DT (diffusion coefficient of the free target),"D-Apt49 [2]; free L-Tym, assuming one electron exchanged",7 × 10^-6 cm^2 s^-1
same,Kd,"D-Apt49 [3]; 3 µM D-Apt49, Tris buffer",2800 ± 400 nM
same,Kd,"D-Apt49 [3]; 10 µM D-Apt49, Tris buffer",2200 ± 600 nM
